Assay results taken from US10626100B2, “Selective HDAC6 inhibitors” (The Trustees of Columbia University in the City of New York, priority 2013, dated 2020).
“Also recorded” adds a separate entry of the source.

Experiments:
[1] = Mouse toxicity study; type: in vivo; settings: mice, intraperitoneal, daily for 5 days, 100, 200, or 300 mg/kg
Protocol: FIG. 6. Average weight of immune-deficient mice treated daily by 30 μL intraperitoneal injection with indicated doses of compound 8. DMSO is the vehicle control.
Toxicity of compound 8 in mice was determined. […] Mice were intraperitoneally injected daily for 5 days with 100, 200, or 300 mg/kg compound 8. […] The effects of compound 8 on the acetylation of alpha-tubulin and histones in the spleen isolated from mice treated with compound 8 were analyzed at three time points after the administration of the drug.

[2] = system: acetylated alpha-tubulin and acetylated histone H3 in LNCaP (human prostate cancer cells); experiment: Accumulation of acetylated proteins in LNCaP cells (western blot); type: cell-based
Protocol: FIG. 2. Blot showing accumulation of acetylated alpha-tubulin and acetylated histone H3 in LNCaP (human prostate cancer cells) cultured with compounds 8 or 11. GADPH used as loading control.
(§1) FIG. 5. Western blots of acetylated alpha-tubulin (Acet-Tub) and acetylated histone H3 (Acet-H3) in HFS (normal) and LNCaP (transformed) cells treated with compound 8 at 8, 16, 32, and 64 μM for 24 h. Western blots of GAPDH and total histone H3 (Total-H3) are loading controls.
(§2) Recombinant HDAC1 and HDAC6 are used to evaluate the selective inhibitory potency of each compound. Cell based assays: Normal cells (Human Foreskin Fibroblast cells), LNCaP (human prostate cancer cells), MCF-7 (human breast cancer cells, A549 (human adenocarcinoma of lung cells) and ARP-1 (human multiple myeloma cells) are used in these assays. Cells were cultured for up to 72 hr without and with the potential HDAC6-selective inhibitor. SAHA was used as a control. Cell number and cell viability were determined by enumeration. Proteins were extracted from cells and assayed for accumulation of acetylated tubulin and acetylated histones. All methods are described in Namdar et al., PNAS, 2010, 107:20003-8. In vivo animal studies: Potential HDAC6 inhibitor compounds are further assayed by administration to mice for up to 5 days with daily injections. Animals are sacrificed and tissues are analyzed for accumulation of acetylated tubulin and acetylated histones.

[3] = system: LNCaP (transformed) cells; experiment: Combination with anti-cancer agents in LNCaP cells; type: cell-based
[4] = system: acetylated alpha-tubulin and acetylated histone H3 in HFS (human foreskin fibroblast) cells; experiment: Accumulation of acetylated proteins in HFS normal cells (western blot); type: cell-based
Protocol: as §1, §2

[5] = LNCaP cells, 8 μM to 64 μM, 24 h, FIG. 5
[6] = transformed cells, concentrations as high as 16 μM
[7] = HFS cells, 8 μM to 64 μM, 24 h, FIG. 5
[8] = normal cells, concentrations as high as 16 μM

## O=C(NO)c1ccc(CN(CCO)C(=O)Cc2ccccc2)cc1 [Compound 8, N-hydroxy-4-((N-(2-hydroxyethyl)-2-phenylacetamido)methyl) benzamide]
[1]
  tolerability in animals: well tolerated
[1]; FIG. 6
  weight loss: no weight loss
[2]; [5]
  accumulation of acetylated alpha-tubulin: caused accumulation of acetylated alpha-tubulin
  accumulation of acetylated histones: not of acetylated histones
[2]; LNCaP cells, FIG. 2
  accumulation of acetylated histones (H3): did not cause accumulation of actylated histones; also recorded: without induction of H3 acetylation
  accumulation of acetylated α-tubulin: caused the accumulation of acetylated α-tubulin; also recorded: significant levels of tubulin acylation were present
[2]; [6]
  accumulation of acetylated alpha-tubulin: selectively induced accumulation of acetylated alpha-tubulin and acetylated PRX
  accumulation of acetylated histones: not of acetylated histones
[3]; LNCaP, 50 μM etoposide and 16 μM compound 8, 72 h, versus etoposide alone
  cell growth and cell viability in combination with etoposide: inhibition in cell growth and loss of cell viability to a greater extent than LNCaP cells cultured with etoposide alone; also recorded: enhances etoposide or SAHA-induced transformed cell death
[3]; LNCaP, compound 8 and 5 μM SAHA, 72 h, versus SAHA alone
  cell death in combination with SAHA: cell death is enhanced; also recorded: enhances etoposide or SAHA-induced transformed cell death
[3]; LNCaP, paclitaxel and compound 8, 72 h, versus either drug alone
  cell death in combination with paclitaxel: increases cell death
[3]; transformed cells, induction of apoptosis and accumulation of DNA damage
  cytotoxicity of anti-cancer drugs in transformed cells cultured with compound 8: enhances the cytotoxicity of anti-cancer drugs
[4]; [7]
  accumulation of acetylated alpha-tubulin: caused accumulation of acetylated alpha-tubulin
  accumulation of acetylated histones: not of acetylated histones
[4]; [8]
  accumulation of acetylated PRX: selectively induced accumulation of acetylated alpha-tubulin and acetylated PRX
  accumulation of acetylated alpha-tubulin: selectively induced accumulation of acetylated alpha-tubulin and acetylated PRX
  accumulation of acetylated histones: not of acetylated histones
